From US9670162B2, “Mitochondrial aldehyde dehyrogenase-2 modulators and methods of use thereof” (The Board of Trustees of the Leland Stanford Junior …, priority 2013, dated 2017)
Numbering of substitutions follows the chain as printed.

Experiments:
[1] = molecular target: T1, human ALDH2*2 recombinant mutant enzyme (E487K) (Homo sapiens, UniProt P05091, E504K); test: ALDH2 enzymatic assay (NADH at 340 nm), recombinant mutant enzyme; assay type: biochemical; design: key: −: no activation or inhibition; +: activation less than control 1; ++: activation similar to control 1, within 10%; +++: activation more than control 1 and less than control (compound 161); ++++: activation similar to compound 161, within 10%; settings: activation relative to benchmarks control 1 and compound 161
T1 construct: His-tag (pTrcHis vector) (N); made in house; host or cells: E. coli BL21
T1 sequence (P05091 18-517 E504K): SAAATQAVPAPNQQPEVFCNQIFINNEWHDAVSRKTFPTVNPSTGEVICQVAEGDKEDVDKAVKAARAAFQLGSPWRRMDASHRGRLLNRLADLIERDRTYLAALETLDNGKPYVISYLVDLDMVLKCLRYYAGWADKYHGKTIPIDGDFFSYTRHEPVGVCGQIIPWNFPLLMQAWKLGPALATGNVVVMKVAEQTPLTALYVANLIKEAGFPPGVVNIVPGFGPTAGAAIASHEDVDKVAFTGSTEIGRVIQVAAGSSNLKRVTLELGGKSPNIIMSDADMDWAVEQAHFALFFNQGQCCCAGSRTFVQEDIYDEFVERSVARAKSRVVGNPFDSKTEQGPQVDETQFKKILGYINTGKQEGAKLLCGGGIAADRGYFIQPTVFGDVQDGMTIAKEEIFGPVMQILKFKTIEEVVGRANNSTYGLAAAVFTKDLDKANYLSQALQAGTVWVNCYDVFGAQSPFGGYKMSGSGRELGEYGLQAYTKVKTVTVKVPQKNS
Text: (§1) ALDH2 catalyzes the oxidative reaction of substrate acetaldehyde to acetic acid using NAD^+ as a cofactor. Enzymatic activity, or catalytic rate, of aldehyde dehydrogenase (ALDH2) can be measured spectrophotometrically at UV wavelength λ340 nm by the accumulation of reduced product NADH derived from NAD^+. […] This method is well-established in the literature [e.g. D. K. Rex, W. F. Bosron, J. E. Smialek, T. K. Li, Alcohol Clin Exp Res 9, 147 (1985)].
(§2) Full-length wild type human ALDH2 cDNA was purchased from ATCC (No. MGC-1806. GenBank ID: BC002967). The 18-amino acid mitochondria transport signal sequence was removed by PCR and cloned into the NheI/HindIII sites of a His-tag vector, pTrcHis, using standard molecular cloning techniques. The human ALDH2* cDNA construct containing the Asian E487K mutation was obtained by site-directed mutagenesis to create the E487K substitution of the wild type ALDH2. Both human clones were designed to express a recombinant protein with the His-tag at the N-terminus of the protein. For the co-expression experiments of human ALDH2 wild type and ALDH2*2 heterotetramers, a wild type ALDH2 gene and a ALDH2 E487K gene were inserted separately into the two multiple cloning sites of pETDuet-1 vector. (Novagen, Calif., USA). All the vectors were transformed into BL21 E. coli host cells and subjected to 0.5 mM IPTG induction for protein expression at 30° C. Purifications of the recombinant proteins by affinity nickel columns (HisTrap, GE Healthy Science, USA) were carried out using standard protocols according to manufacturer's instructions (Novagen, USA).
(§3) Control 1 and compound 161 are used as benchmarks and the symbols have the following representation: […]

[2] = molecular target: T2, human ALDH2 wild type (Homo sapiens, UniProt P05091); test: ALDH2 enzymatic assay (NADH at 340 nm), recombinant wild type enzyme; assay type: biochemical; design: key: −: no activation or inhibition; +: activation less than control 1; ++: activation similar to control 1, within 10%; +++: activation more than control 1 and less than control (compound 161); ++++: activation similar to compound 161, within 10%; settings: activation relative to benchmarks control 1 and compound 161
T2 construct: His-tag (pTrcHis vector) (N); made in house; host or cells: E. coli BL21
T2 sequence (P05091 18-517): T1 sequence (P05091 18-517 E504K) with K487E
Text: as §1, §2, §3

| Compound | ALDH2 (mutant) [1] | ALDH2 (wild-type) [2] |
| --- | --- | --- |
| COc1ccc(CNC(=O)c2c(Cl)cccc2OCC2CCC2)cc1F [Compound 144] | +++ | +++ |
| COc1ccc(CNC(=O)c2c(Cl)cccc2OCC2CCCC2)cc1F [Compound 145] | +++ | ++ |
| COc1ccc(CNC(=O)c2c(Cl)cccc2OC2CCCC2)cc1F [Compound 146] | +++ | ++ |
| CCCOc1cccc(Cl)c1C(=O)NCc1ccc(OC)c(F)c1 [Compound 147] | +++ | +++ |
| COc1ccc(CNC(=O)c2c(Cl)cccc2NC2CCCC2)cc1F [Compound 148] | + | + |
| COc1ccc(CNC(=O)c2c(Cl)cccc2OCC(C)C)cc1F [Compound 149] | ++++ | ++++ |
| COc1ccc(CNC(=O)c2c(Cl)cccc2OC(C)C2CC2)cc1F (stereo not shown) [Compound 150] | ++ | +++ |
| COc1ccc(CNC(=O)c2c(Cl)cccc2OCC2(C)CC2)cc1F [Compound 151] | ++++ | ++++ |
| COc1ccc(CNC(=O)c2c(Cl)cccc2OCC2CC2C)cc1F (stereo not shown) [Compound 152] | +++ | +++ |
| O=C(NCc1ccc(F)c(F)c1)c1c(Cl)cccc1Br [Compound 153] | + | + |
| COc1ccc(CNS(=O)(=O)c2c(Cl)cccc2Cl)cc1F [Compound 154] | + | + |
| O=C(NCc1ccc(F)c(F)c1)c1c(Cl)cccc1OCC1CC1 [Compound 155] | ++ | + |
| O=S(=O)(NCc1ccc(F)c(F)c1)c1c(Cl)cccc1Cl [Compound 156] | + | − |
| COc1ccc(CNC(=O)c2c(Cl)ccnc2Cl)cc1F [Compound 157] | ++ | ++ |
| COC(=O)c1cccc(Oc2cccc(Cl)c2C(=O)NCc2ccc(OC)c(F)c2)c1 [Compound 158] | + | ++ |
| COc1ccc(CNC(=O)c2c(Cl)cccc2NCC(C)O)cc1F (stereo not shown) [Compound 159] | ++ | ++ |
| COc1ccc(CNC(=O)c2c(Cl)ccnc2NCC2CC2)cc1F [Compound 160] | ++ | ++ |
| COc1ccc(CNC(=O)c2c(OCC3CC3)ccnc2OCC2CC2)cc1F [Compound 162] | ++ | + |
| COc1ccc(CNS(=O)(=O)c2c(Cl)cccc2NCC2CC2)cc1F [Compound 163] | + | + |
| COc1ccc(CNS(=O)(=O)c2c(Cl)cccc2OCC2CC2)cc1F [Compound 164] | + | + |
| COc1ccc(CNC(=O)c2c(Cl)cccc2OCCN(C)C)cc1F [Compound 165] | ++ | ++ |

| Compound | ALDH2 (mutant) [1] | ALDH2 (wild-type) [2] |
| --- | --- | --- |
| COc1ccc(CNC(=O)c2c(Cl)cccc2OCC(C)N(C)C)cc1F (stereo not shown) [Compound 166] | ++ | ++ |
| COc1ccc(CNC(=O)c2c(Cl)cccc2OCC(C)(C)N(C)C)cc1F [Compound 167] | + | + |
| COc1ccc(CNC(=O)c2c(Cl)cc[n+]([O-])c2Cl)cc1F [Compound 168] | + | + |
| COc1ccc(CNC(=O)c2c(OCC3CC3)ccnc2Cl)cc1F [Compound 170] | +++ | ++ |
| COc1cc(CNC(=O)c2c(Cl)ccnc2Cl)ccc1F [Compound 171] | − | − |
| COc1cc(CNC(=O)c2c(Cl)ccnc2OCC2CC2)ccc1F [Compound 172] | + | + |
| COc1c(F)cc(CNC(=O)c2c(Cl)ccnc2Cl)cc1F [Compound 173] | ++ | + |
| COc1ccc(CNC(=O)c2c(Cl)ccnc2Cl)c(F)c1F [Compound 174] | ++ | + |
| O=C(NCc1ccc(OC(F)(F)F)c(F)c1)c1c(Cl)ccnc1Cl [Compound 175] | ++ | + |
| COc1cc(F)c(CNC(=O)c2c(Cl)ccnc2Cl)cc1F [Compound 176] | ++ | ++ |
| CC(C)Oc1ccc(CNC(=O)c2c(Cl)ccnc2Cl)cc1F [Compound 177] | − | − |
| COc1ccc(CNC(=O)c2c(Cl)ccnc2OCC2(C)CC2)cc1F [Compound 178] | ++++ | ++++ |
| COc1ccc(CNC(=O)c2c(Cl)ccnc2OCC2CC2)c(F)c1F [Compound 179] | ++ | + |
| O=C(NCc1ccc(F)c(F)c1)c1c(Cl)ccnc1OCC1CC1 [Compound 180] | + | + |
| COc1ccc(CNC(=O)c2c(Cl)ccnc2NCC(C)C)cc1F [Compound 182] | ++ | + |
| COc1ccc(CNC(=O)c2c(Cl)ccnc2OCC(C)C)cc1F [Compound 183] | ++ | ++ |
| COc1ccc(CNC(=O)c2c(Cl)ccnc2OCCN(C)C)cc1F [Compound 184] | ++ | + |
| COc1ccc(CNC(=O)c2c(Cl)ccnc2NCC(C)O)cc1F (stereo not shown) [Compound 185] | + | + |
| O=C(NCc1ccc(OC(F)(F)F)c(F)c1)c1c(Cl)ccnc1OCC1CC1 [Compound 187] | ++ | + |
| CC(C)Oc1ccc(CNC(=O)c2c(Cl)ccnc2OCC2CC2)cc1F [Compound 188] | − | − |
